The values below come from US20230165979A1, “COPPER-CONTAINING THERAGNOSTIC COMPOSITIONS AND METHODS OF USE” (Cornell University, priority 2020, published 2023).

Data set [1] deals with LNCaP tumors. The experiment in a line: Published biodistribution of 177Lu-labeled comparison ligands in the same animal model. As to conditions: over 96 h p.i.; from previously determined values. It is filed as in vivo, mice. The method, then: When tumor size reached approximately 200 mm^3, mice (n=4/time point) were administered 3.8±0.1 MBq [^64Cu]Cu-RPS-085 or 0.8±0.005 MBq [^67Cu]Cu-RPS-085 by intravenous injection. The total mass dose received by each animal was approximately 50 ng (31 pmol) and approximately 28 ng (17 pmol) for the [^64Cu]Cu-RPS-085 and [^67Cu]Cu-RPS-085 studies, respectively. The mice were sacrificed at 4 h, 24 h, or 48 h p.i. ([^64Cu]Cu-RPS-085) or 4 h, 24 h, and 96 h ([^67Cu]Cu-RPS-085). A blood sample was collected, and the following tissues were collected and weighed wet using a digital balance: heart, lungs, liver, stomach, small intestine, large intestine, spleen, pancreas, kidneys, muscle, bone, and tumor. The tissues were counted on a Wizard2 Automatic Gamma Counter (Perkin Elmer, USA) against a 1% injected dose standard. The counts were corrected for decay and for activity injected, and tissue uptake was expressed as percent injected dose per gram (% ID/g). Standard error of the mean (SEM) was calculated for each data point. Statistical analyses were performed using an unpaired t test with GraphPad Prism software. A P value of less than 0.05 was considered significant. […] Published values for [177Lu]Lu-RPS-063 are shown for comparison; all concentrations are expressed as percent injected dose per organ.

The test system of data set [2] is LNCaP tumors. As to conditions: over 96 h p.i.; same animal model; previously determined; cited from earlier work.
Data set [3] is described as follows: Stability of the reformulated radioligand solution at 25° C. As to conditions: after reformulation, radioHPLC. It is filed as physicochemical. The method, then: The stability of the reformulated [^64Cu]Cu-RPS-085 solution was determined in triplicate at 25° C. Three 1 mL samples at a radioactivity concentration of approximately 10 MBq/mL and radiochemical purity >99% were transferred to Eppendorf tubes (VWR, USA). The samples were incubated for 24 h at 25° C. in an Eppendorf ThermoMixer® C (VWR, USA). Radiochemical purity was determined by analytical reverse phase (radio)HPLC and expressed as a fraction of the purity of the sample prior to incubation. After reformulation, [^64Cu]Cu-RPS-085 was stable at room temperature for more than 24 h.

Another data set can be described thus: Plasma stability. The data set is classed as in vitro ADME, human. Particulars: 37° C. As to the method:
The plasma stability of [^67Cu]Cu-RPS-085 was determined according to previously described methods (Alt, et al., Mol Pharmaceutics. 2014; 11: 2855-63). Briefly, frozen human plasma was purchased from Sigma Aldrich (USA), thawed at 37° C., and 200 μL aliquots were transferred to Eppendorf tubes. A 100 μL aliquot of [^67Cu]Cu-RPS-085 in 10% EtOH/saline was added to each tube, and the mixture was shaken at 300 rpm for 24 h at 37° C. on an Eppendorf ThermoMixer® C (VWR, USA). The experiment was performed in triplicate. The proteins were precipitated by addition of 600 μL acetonitrile. The samples were centrifuged at 13500 rpm for 3 min in an Eppendorf 5424-R Centrifuge. The supernatant was analyzed by analytical reverse phase (radio)HPLC as described above. After 24 h incubation in human plasma, [^67Cu]Cu-RPS-085 was 97.4±0.4% intact. The lone radiochemical impurity was an unidentified fragment of the parent compound.

The next data set deals with LNCaP xenograft tumors. The experiment in a line: microPET/CT imaging in LNCaP xenograft mouse model. It is filed as in vivo, male BALB/c athymic nu/nu mice. The method, then: (§1) All animal studies were approved by the Institutional Animal Care and Use Committee of Weill Cornell Medicine and were undertaken in accordance with the guidelines set forth by the USPHS Policy on Humane Care and Use of Laboratory Animals. The mice were housed under standard conditions in approved facilities with 12 h light/dark cycles. Food and water was provided ad libitum throughout the course of the studies. Male BALB/c athymic nu/nu mice were purchased from the Jackson Laboratory (USA). Prior to inoculation, LNCaP cells were suspended at a density of 4×10^7 cells/mL in a 1:1 mixture of PBS (VWR, USA):Matrigel (BD Biosciences, USA). Each mouse was injected subcutaneously in the left flank with 0.25 mL of the cell suspension. The animals were monitored twice weekly until palpable tumors emerged.
When tumor size was in the range 200-500 mm^3, mice (n=4) were administered 21.2±0.5 MBq [^64Cu]Cu-RPS-085 by intravenous injection. The total mass dose received by each animal was approximately 300 ng (185 pmol). The mice were imaged under isoflurane anesthesia at 1 h, 3 h, 6 h, 24 h, and 48 h post injection (p.i.) by microPET/CT (Inveon™; Siemens Medical Solutions, USA). Total acquisition time was 30 min. A CT scan was obtained immediately before the PET acquisition for both anatomical co-registration and attenuation correction. Images were reconstructed using the Inveon™ software provided by the vendor.

Another data set relates to LNCaP xenografts. The data set is described as follows: Tissue biodistribution in mice bearing LNCaP xenografts. The data set is classed as in vivo, male Balb/C nu/nu mice. Particulars: for activity in kidneys / tumor uptake: i.v., ±SEM. As to the method:
as §1
When tumor size reached approximately 200 mm^3, mice (n=4/time point) were administered 3.8±0.1 MBq [^64Cu]Cu-RPS-085 or 0.8±0.005 MBq [^67Cu]Cu-RPS-085 by intravenous injection. The total mass dose received by each animal was approximately 50 ng (31 pmol) and approximately 28 ng (17 pmol) for the [^64Cu]Cu-RPS-085 and [^67Cu]Cu-RPS-085 studies, respectively. The mice were sacrificed at 4 h, 24 h, or 48 h p.i. ([^64Cu]Cu-RPS-085) or 4 h, 24 h, and 96 h ([^67Cu]Cu-RPS-085). A blood sample was collected, and the following tissues were collected and weighed wet using a digital balance: heart, lungs, liver, stomach, small intestine, large intestine, spleen, pancreas, kidneys, muscle, bone, and tumor. The tissues were counted on a Wizard2 Automatic Gamma Counter (Perkin Elmer, USA) against a 1% injected dose standard. The counts were corrected for decay and for activity injected, and tissue uptake was expressed as percent injected dose per gram (% ID/g). Standard error of the mean (SEM) was calculated for each data point. Statistical analyses were performed using an unpaired t test with GraphPad Prism software. A P value of less than 0.05 was considered significant. The concentration of [67Cu]Cu-RPS-085 found in blood, heart, lungs, liver, small intestine, large intestine, stomach, spleen, pancreas, kidneys, muscle, and bone at 4 h, 24 h, and 96 h, post injection (n=4 per time point) is shown in Table 1 below. Published values for [177Lu]Lu-RPS-063 are shown for comparison; all concentrations are expressed as percent injected dose per organ.

Take [^177Lu]Lu-PSMA-617: the Ãtumor/Ãkidney ratio in the data set with LNCaP tumors [1] was 2.1. Further, in the data set with LNCaP tumors [2], the “accumulated activity (Ã) in LNCaP tumors” value was 544 (% ID/g)·h and the “accumulated activity (Ã) in kidneys” value is recorded as 260 (% ID/g)·h.
In the case of `CC12CNCCNCC(NC(=O)CCCC(=O)NCCCC[C@H](NC(=O)CCOCCOCCOCCn3cc(-c4cccc(NC(=O)NCCCC[C@H](NC(=O)N[C@@H](CCC(=O)O)C(=O)O)C(=O)O)c4)nn3)C(=O)N[C@@H](CCCCNC(=O)Cc3ccc(I)cc3)C(=O)O)(CNCCNC1)C[N@]1CC[N@](C2)[Cu]1` [[^64/67Cu]Cu-RPS-085], the “time stable in solution at room temperature” value in data set [3] is on record as “more than 24 h”. For the same molecule, the “time stable in human plasma” value in the data set “Plasma stability” is recorded as “more than 24 h”.
Take `CC12CNCCNCC(NC(=O)CCCC(=O)NCCCC[C@H](NC(=O)CCOCCOCCOCCn3cc(-c4cccc(NC(=O)NCCCC[C@H](NC(=O)N[C@@H](CCC(=O)O)C(=O)O)C(=O)O)c4)nn3)C(=O)N[C@@H](CCCCNC(=O)Cc3ccc(I)cc3)C(=O)O)(CNCCNC1)CNCCNC2.[64Cu+2]` [[^64Cu]Cu-RPS-085]: in the data set with LNCaP xenograft tumors (microPET/CT), the background tissue activity result is given as “low”, the “primary route of excretion” value is “Renal clearance” and the “time by which only tumors could be visualized” value is at most 24 h. In addition, in the data set with LNCaP xenograft tumors (mouse, in vivo), the “time by which uptake in tumors exceeded kidneys” value was at most 6 h p.i and the “time of greatest activity in the tumor” value turned out to be 3 h p.i. The “activity in the tumor over time” value in the data set on LNCaP xenograft tumors (over the 48 h imaging window, semi-quantitative, ROIs) was “virtually stable”. In addition, in the data set on LNCaP xenografts (4 h p.i.), the tumor-to-blood ratio is 230±33, the tumor-to-kidney ratio came to 0.9±0.2, the activity in kidneys is reported as 13.7±2.3 % ID/g and the tumor uptake turned out to be 12.9±1.4 % ID/g. Also, in the data set with LNCaP xenografts (24 h p.i.), the tumor-to-kidney ratio was 3.4±0.7, the activity in kidneys is listed as 2.4±0.4 % ID/g and the tumor uptake is 8.3±0.8 % ID/g. Also, in the data set on LNCaP xenografts (48 h p.i.), the tumor-to-kidney ratio turned out to be 6.1±0.8, the activity in kidneys is reported as 1.6±0.1 % ID/g and the tumor uptake was 9.8±1.3 % ID/g. In addition, the tumor-to-muscle ratio entry in the data set with LNCaP xenografts (all observed time points) is given as “greater than 500”. In the data set on LNCaP xenografts (all time points (4, 24, 48 h p.i.)), the “activity in all other tissues including liver” value is given as “less than 0.5 % ID/g”. In the data set with LNCaP xenografts (subsequently (after 4 h p.i.)), the tumor-to-blood ratio result is “exceeded 400”. In data set [3], the “time stable in solution at room temperature” value is reported as “more than 24 h”.
